From publication PMC10641831 (Journal of Medicinal Chemistry, 2023)
“Also recorded” adds a separate entry of the source. Read-outs that look alike come from different tables or passages of the source. Numbered stars: 1 amine (or outer) side, 2 acyl side, 3 side chain; on linkers, the order of the positions; unused ones are H or OH. Bridge positions count the residues as written; N and C are the ends. Square brackets hold non-standard residues; d marks the D form. Peptide text beside a SMILES is read from it. AMPB(E) = O=C(c1ccc(/N=N/c2ccc(CN[*:1])cc2)cc1)[*:2]

How the values were obtained:
[1] = system: pCREB; assay: Immunostaining and confocal microscopy: pCREB activation in HEK293 cells overexpressing V1bR-GFP; assay type: cell-based, human; conditions: 1 nM, 60 min, normalized to negative control; VP 10 nM positive control
Excerpt: (§1) The most promising photoprobe, 12, with a 5.3-fold photoswitch activity window at V1bR, was selected for more comprehensive in vitro experiments to validate its application scope for biological and neurological studies. As a model system, we used HEK293 cells overexpressing GFP-tagged V1bR, where receptor activation via pCREB (phosphorylated cAMP response element binding protein) and V1bR-GFP internalization can be followed through immunostaining and confocal scanning microscopy.
(§2) HEK293 cells stably expressing a C-terminal-conjugated GFP human V1bR were cultured in a full growth medium consisting of DMEM/GlutaMAX (Gibco, Thermo Fisher), containing 0.5 mg/mL G-418 (Gibco, Thermo Fisher), 1 mM sodium pyruvate (Gibco, Thermo Fisher), and 10% fetal bovine serum (Gibco, Thermo Fisher). […]
(§3) Coverslips were first incubated with 5% normal donkey serum (Jackson Immuno Research), 2% bovine serum albumin (Sigma-Aldrich, Merck), and 0.2% Triton X-100 (Sigma-Aldrich, Merck) to block nonspecific protein binding. […] Images were analyzed with ZEN pro (Zeiss) ImageJ 1.52a and collated in CorelDraw 2019. To determine pCREB activation, the fluorescence was normalized to the negative control (cells treated with a serum-free medium without G-418 instead of 12), as already minor receptor interactions can lead to pCREB activity in overexpression systems.

[2] = system: GFP-conjugated human V1bR; assay: Immunostaining and confocal microscopy: V1bR-GFP activation/internalization in HEK293 cells; assay type: cell-based; conditions: 1 nM, 60 min
Excerpt: as §1, §2, §3

[3] = molecular target: T1, hV1aR (Homo sapiens, UniProt P37288); assay: IP-One accumulation assay, agonist function, HEK293 cells expressing hV1aR; assay type: cell-based; conditions: for EC50: supplementary CSV, µM
T1 construct: expressed in transfected cells

[4] = Photostationary state by analytical C18-RP-HPLC; assay type: physicochemical
Method: All photoprobes were investigated regarding their photophysical properties in aqueous buffer (pH 7.5), mimicking the conditions of the biological functional assays.
1.3.2. Photostationary States
Photostationary states (PSS) were measured on analytical C18-RP-HPLC (flow: 0.3 mL/min, solvent A: H2O (0.05% TFA), solvent B: MeCN). To determine the PSS of the photoswitches, the samples (in 0.1 mM in HEPES buffer + 1% DMSO, pH 7.5) were irradiated first with 340 nm to get the Z-isomer. Afterwards, the sample was irradiated with 420 nm (8-17) or 528 nm (18 and 19), respectively, to get back to the E-isomer. The samples were measured at the isosbestic points.

[5] = molecular target: T2, hV1bR (Homo sapiens, UniProt P47901); assay: IP-One accumulation assay, agonist function, HEK293 cells expressing hV1bR; assay type: cell-based
T2 construct: expressed in transfected cells
T2 sequence (P47901 1-424): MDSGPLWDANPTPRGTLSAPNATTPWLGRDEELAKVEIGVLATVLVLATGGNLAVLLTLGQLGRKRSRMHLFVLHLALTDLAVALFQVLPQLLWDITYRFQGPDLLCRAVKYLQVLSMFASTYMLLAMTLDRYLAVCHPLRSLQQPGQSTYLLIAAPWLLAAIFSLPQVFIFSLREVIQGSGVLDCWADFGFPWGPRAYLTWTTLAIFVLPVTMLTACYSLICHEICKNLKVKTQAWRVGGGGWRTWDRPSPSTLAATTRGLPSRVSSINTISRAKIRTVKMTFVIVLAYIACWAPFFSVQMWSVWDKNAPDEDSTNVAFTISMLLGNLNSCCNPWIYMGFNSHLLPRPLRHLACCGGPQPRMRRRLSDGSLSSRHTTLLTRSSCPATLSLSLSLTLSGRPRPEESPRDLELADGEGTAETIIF

[6] = Thermal half-life of the Z-isomer (UV/vis, 96-well plate); assay type: physicochemical; conditions: 25 °C
Excerpt: All photoprobes were investigated regarding their photophysical properties in aqueous buffer (pH 7.5), mimicking the conditions of the biological functional assays. […] Upon irradiation with 340 nm light for 10 s and monitoring via UV/vis spectroscopy, all compounds could be switched to the Z-isomer, reaching the photostationary state (PSS). Compounds 8–17 containing azobenzene could be switched back to the E-isomer by irradiation at 420 nm for 60 s. Compounds 18 and 19 containing arylazopyrazole could be reverted to the E isomer by using 528 nm light. […] The PSS, when switched to the Z-isomer, was consistently good, with a PSS of 81–95%. […] The thermal half-lives of 10 and 12 were also measured at 37 °C, representing the temperature during the biological assays. As expected, the thermal half-lives decreased, however, the ratio of E and Z isomers remained stable during the incubation period of the biological assays (1 h).
Starting materials and commercial reagents were purchased from Acros, Alfa Aesar, Fisher, Fluka, Fluorochem, Merck (Sigma-Aldrich), TCI and VWR and were used without further purification. Solvents were used in p.a. quality or dried according to common procedures if necessary. All reactions with oxygen- or moisture-sensitive reagents were carried out in glassware that was dried before use by heating under vacuum. Dry nitrogen or argon was used for an inert gas atmosphere. All NMR spectra were measured at room temperature (20 °C) using a Bruker Avance 400 (400 MHz for ^1H and 101 MHz for ^13C) or a Bruker Avance 600 (600 MHz for ^1H and 151 MHz for ^13C) NMR spectrometer. All chemical shifts are reported in δ-scale as parts per million [ppm] (multiplicity, coupling constant J, number of protons) relative to the solvent residual peaks. Coupling constants J are given in hertz [Hz]. Abbreviations used for signal multiplicity: ^1H NMR: s = singlet, d = doublet, dd = doublet of doublets, ddd = doublet of doublets of doublets, dt = doublet of triplets, t = triplet, td = triplet of doublets, q = quartet, and m = multiplet. All mass spectra were recorded on an Agilent Q-TOF 6540 UHD, Finnigan MAT SSQ 710 A, Jeol AccuTOF GCX or ThermoQuest Finnigan TSQ 7000 spectrometer. Absorption spectra were recorded on an UV/vis Agilent Cary 50 spectrometer. Thermal half-lives were measured on a 96-well plate in a Thermo Scientific Multiskan Spectrum. Analytical TLC was performed on silica gel-coated alumina plates (MN precoated TLC-sheets ALUGRAM Xtra SIL G/UV254). Visualization was done using UV light (254 or 366 nm) or staining with ninhydrin solution. Column chromatography was performed on a Biotage Isolera One automated flash purification system with a UV/vis detector. Analytical RP-HPLC was carried out on an Agilent 1220 Infinity LC System (column: P/No 00F-4251-B0, Phenomenex Luna 3 μm C18(2) 100 Å, LC column 150 mm × 2.0 mm). Purification by preparative HPLC was conducted on a preparative HPLC Agilent 1260 Infinity LC System [column: P/No 00G-4253-P0-AX, Phenomenex Luna 10 μm C18(2) 100 Å, LC column 250 mm × 21.2 mm]. The eluent systems were used as specified. After the purification process, solvents were removed by lyophilization. Switching experiments were done with a 340 nm LED (SSC VIOSYS CUD4AF1B, 500 mA, 55 mW), 420 nm LED (ILH-XC01-S410-SC211-WIR200, 800 mA, 440 mW), and 528 nm LED (OSRAM Oslon SSL 80 green, 500 mA, 34 mW). Purity of all photoprobes was >95% as determined by analytical RP-HPLC at 220 nm in DMSO.
1.3.4. Thermal Half-lives
Thermal half-lives were measured in a 96-well plate in a Thermo Scientific Multiskan® Spectrum at 25 °C (and at 37 °C for compounds 10 and 12). The solutions (50 µM in HEPES buffer + 0.25% DMSO) were pre-irradiated with 340 nm. The absorption at 335 nm was measured every 3 h. The data was analyzed using Origin 2021.
0,7 1/2 ExpDec1 Fit of Sheet1 B
Modell ExpDec1 0,35 Modell ExpDec1
0,6 Gleichung y = A 1 *e xp (-x/t1 ) + y0 Gleichung y = A 1 *e xp (-x/t1 ) + y0 […]

[7] = molecular target: T1, hV1aR; assay: IP-One accumulation assay, antagonist function (VP displacement) at hV1aR; assay type: cell-based; conditions: coaddition of VP 1 nM
Method: This was done via coaddition and prior mixing of VP (EC60 of 1 nM) and the potential antagonists 13–19. […] IP1 accumulation was measured at concentrations of 10 and 100 μM for peptides 13–19.
Figure 5 Functional screen for antagonistic activities at V1aR. […] Data represent mean ± SEM from at least three independent experiments, each performed in triplicate.
To assess the antagonistic properties of compounds 13–19, a 4-fold concentrated dilution series in stimulation buffer was prepared for each isomer. Separately, a 4-fold concentrated VP solution was prepared (4 nM, final concentration 1 nM). A 1:1 mixture of VP solution and the diluted ligand was made to end up with a 2-fold concentration of both compounds. The following steps were conducted as described above for the agonist mode. The FRET ratios (665/615 nm) were calculated and obtained values were normalized to the basal activity value (0%) and maximal effect of VP (100%). Atosiban was used as a positive control.

[8] = molecular target: human oxytocin receptor (human) (UniProt P30559)
Sequence of human oxytocin receptor (human) (P30559 whole entry): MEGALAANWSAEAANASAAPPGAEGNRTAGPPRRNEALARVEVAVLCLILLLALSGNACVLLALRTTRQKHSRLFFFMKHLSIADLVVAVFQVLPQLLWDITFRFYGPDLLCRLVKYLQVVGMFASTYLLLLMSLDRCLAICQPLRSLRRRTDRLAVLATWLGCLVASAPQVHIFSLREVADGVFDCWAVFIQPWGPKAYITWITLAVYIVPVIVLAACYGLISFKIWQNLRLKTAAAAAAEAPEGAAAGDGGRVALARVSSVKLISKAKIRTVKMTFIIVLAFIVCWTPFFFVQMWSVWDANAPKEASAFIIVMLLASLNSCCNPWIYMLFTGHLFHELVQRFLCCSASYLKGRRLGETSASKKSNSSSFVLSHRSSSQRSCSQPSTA

T1 sequence (P37288 whole entry): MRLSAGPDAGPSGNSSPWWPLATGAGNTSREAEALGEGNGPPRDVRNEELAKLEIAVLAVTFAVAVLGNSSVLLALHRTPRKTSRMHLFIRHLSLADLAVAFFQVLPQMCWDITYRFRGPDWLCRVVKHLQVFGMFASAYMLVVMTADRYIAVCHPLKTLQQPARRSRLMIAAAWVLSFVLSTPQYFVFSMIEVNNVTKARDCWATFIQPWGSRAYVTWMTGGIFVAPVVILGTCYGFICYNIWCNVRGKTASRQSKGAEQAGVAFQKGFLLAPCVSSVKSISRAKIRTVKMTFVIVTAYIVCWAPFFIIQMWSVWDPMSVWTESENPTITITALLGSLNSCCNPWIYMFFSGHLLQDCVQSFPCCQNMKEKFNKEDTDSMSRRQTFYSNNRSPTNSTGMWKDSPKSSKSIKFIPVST
Sequence of Oxytocin (P01178 whole entry, looked up): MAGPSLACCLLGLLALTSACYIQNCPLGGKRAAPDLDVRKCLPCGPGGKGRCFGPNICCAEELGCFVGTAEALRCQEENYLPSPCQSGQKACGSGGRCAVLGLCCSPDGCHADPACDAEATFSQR

## N=C(N)NCCC[C@H](NC(=O)[C@@H]1CCCN1C(=O)[C@@H]1CSSC[C@H](N)C(=O)N[C@@H](Cc2ccc(O)cc2)C(=O)N[C@@H](Cc2ccc(/N=N/c3ccccc3)cc2)C(=O)N[C@@H](CCC(N)=O)C(=O)N[C@@H](CC(N)=O)C(=O)N1)C(=O)NCC(N)=O [E-12]
[1]
  pCREB activation (CREB phosphorylation): inactive
[2]
  V1bR-GFP receptor activation / internalization: did not cause any visible receptor activation or internalization; also recorded: did not induce V1bR-GFP internalization; also recorded: inactive

## N=C(N)NCCC[C@H](NC(=O)[C@@H]1CCCN1C(=O)[C@@H]1CSSC[C@H](N)C(=O)N[C@@H](Cc2ccc(O)cc2)C(=O)N[C@@H](Cc2ccc(/N=N\c3ccccc3)cc2)C(=O)N[C@@H](CCC(N)=O)C(=O)N[C@@H](CC(N)=O)C(=O)N1)C(=O)NCC(N)=O [Z-12]
[1]
  pCREB activation (CREB phosphorylation): significantly (P < 0.001) activated pCREB at levels comparable to VP; also recorded: significantly induced CREB phosphorylation
[2]
  V1bR-GFP receptor activation / internalization: activated V1bR-GFP; also recorded: induced V1bR-GFP internalization

## N=C(N)NCCC[C@H](NC(=O)c1ccc(/N=N/c2ccc(CNC(=O)[C@@H]3CSSC[C@H](N)C(=O)N[C@@H](Cc4ccc(O)cc4)C(=O)N[C@@H](Cc4ccccc4)C(=O)N[C@@H](CCC(N)=O)C(=O)N[C@@H](CC(N)=O)C(=O)N3)cc2)cc1)C(=O)NCC(N)=O [compound 14, [AzbL^7]-VP] (H-CYFQNC[AMPB(E)]RG-NH2; disulfide 1-6)
[3]; concentrations up to 10 μM
  agonist activity at V1aR: complete loss of potency
[3]; read-out: activity E-isomer V1aR
  EC50: > 10 µM
[3]; read-out: activity Z-isomer V1aR
  EC50: > 10 µM
[4]; irradiation with 340 nm, HEPES buffer
  PSS (E → Z): 81%
[4]; irradiation with 420 nm (8–17) or 528 nm (18, 19)
  PSS (Z → E): 86%
[5]; EC50 vs VP
  reduced potency at V1bR compared to VP: 700–2000 fold
[5]; supplementary CSV, read-out: activity E-isomer V1bR
  EC50: 4.97 ± 0.754 µM
[6]; 50 µM in HEPES buffer + 0.25% DMSO, pre-irradiated with 340 nm
  t1/2 (thermal half-life, Figure S50): 33.6 h
[6]; preirradiation with 340 nm, HEPES buffer pH 7.4
  t1/2 (thermal half-life Z to E): 33.6 h
[7]; 10 and 100 μM
  antagonistic activity at V1aR: some level of antagonistic activity
[7]; at 10 μM
  VP displacement: 85%

## Oxytocin (from UniProt P01178 20-28) (peptide)
[8]
  Emax (efficacy, reference), IP-One accumulation, HEK293 cells expressing hOTR: 100%
